# Reference: patent US9845291B2, “Estrogen receptor modulators and uses thereof” (Genentech, Inc., priority 2014, dated 2017)
# Target: estrogen receptor alpha (ESR1) (Homo sapiens, UniProt P03372)
# Assay: cell-based
# Details: for ER-alpha MCF7 HCS Sinf: MCF7 breast cancer cells, 4 hours, plateau of the maximal effect, DMSO and Fulvestrant define 0% and 100% changes in ESR1
# Description: Where more than one name is associated with a Formula I compound or intermediate, the chemical structure shall define the compound.
# Cell plates were incubated at 37° C., for 4 hours. Fixation and permeabilization were carried out using a Biotek EL406 plate washer and dispenser as follows. […] Samples were incubated 30 minutes. Well contents was aspirated and 50 ul/well of Phosphate Buffered Saline (PBS) containing 0.5% w/v bovine serum albumen, 0.5% v/v Triton X-100 (Antibody Dilution Buffer) was added to each well. Samples were incubated for 30 minutes. Well contents were aspirated and washed 3 times with 100 ul/well of PBS. Immunofluorescence staining of estrogen receptor alpha (ESR1) was carried out using a Biotek EL406 plate washer and dispenser as follows. […] Samples were incubated for 2 hours at room temperature. Samples were washed 4 times with 100 ul/well of PBS. […] Samples were incubated for 2 hours at room temperature. Samples were washed 3 times with 100 ul/well of PBS using a Biotek EL406. Quantitative fluorescence imaging of ESR1 was carried out using a Cellomics Arrayscan V (Thermo). […] Channel 1 (DNA stain) was used to define the nuclear region (Circ). […] Data analysis was carried out using Genedata Screener Software, with DMSO and 5 nM Fulvestrant treated samples being used to define the 0% and 100% changes in ESR1. The “Robust Fit” method was used to define the inflexion point of curve (EC50) and the plateau of the maximal effect (Sin f).
# Chain of estrogen receptor alpha (ESR1) (P03372 whole entry): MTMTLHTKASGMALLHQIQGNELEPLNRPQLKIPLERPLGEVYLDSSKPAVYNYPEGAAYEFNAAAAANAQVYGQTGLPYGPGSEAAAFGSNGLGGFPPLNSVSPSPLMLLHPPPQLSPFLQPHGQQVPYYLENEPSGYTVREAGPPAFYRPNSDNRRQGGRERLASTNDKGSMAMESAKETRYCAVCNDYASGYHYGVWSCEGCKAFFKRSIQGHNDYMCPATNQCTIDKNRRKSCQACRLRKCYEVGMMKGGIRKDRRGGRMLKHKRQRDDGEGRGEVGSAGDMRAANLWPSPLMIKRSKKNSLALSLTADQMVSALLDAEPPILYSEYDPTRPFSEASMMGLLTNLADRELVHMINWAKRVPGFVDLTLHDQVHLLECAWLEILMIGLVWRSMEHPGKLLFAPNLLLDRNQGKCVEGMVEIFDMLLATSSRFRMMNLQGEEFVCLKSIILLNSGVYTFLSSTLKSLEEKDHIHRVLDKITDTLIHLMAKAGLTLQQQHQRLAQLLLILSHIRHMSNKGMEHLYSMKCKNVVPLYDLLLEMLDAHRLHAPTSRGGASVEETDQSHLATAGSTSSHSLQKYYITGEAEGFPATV
Compound,EC50 [nM],ER-alpha MCF7 HCS Sinf [%]
"CC/C(=C(/c1ccc(OCCN2CC(CF)C2)cc1)c1ccc2[nH]ncc2c1)c1ccc(F)cc1Cl [Example 82, 5-[(E)-2-(2-chloro-4-fluoro-phenyl)-1-[4-[2-[3-(fluoromethyl)azetidin-1-yl]ethoxy]phenyl]but-1-enyl]-1H-indazole]",0.0225,−96.9
"Cc1cc(-c2c(C)c3cc(O)ccc3n2Cc2ccc(OC[C@H](C)N3CC[C@@H](CF)C3)cc2)ccc1O [Example 43, 1-[[4-[(2S)-2-[(3R)-3-(fluoromethyl)pyrrolidin-1-yl]propoxy]phenyl]methyl]-2-(4-hydroxy-3-methyl-phenyl)-3-methyl-indol-5-ol]",0.0179,−96.0
"CS(=O)(=O)c1ccc(-c2ccc3cc(O)ccc3c2Oc2ccc(OCCN3CC(CF)C3)cc2)cc1 [Example 7, 5-(4-(2-(3-(Fluoromethyl)azetidin-1-yl)ethoxy)phenoxy)-6-(4-(methylsulfonyl)phenyl)naphthalen-2-ol]",1.6,−95
"Oc1cccc([C@@H]2Sc3c(ccc(O)c3F)O[C@@H]2c2ccc(OCCN3CC(CF)C3)cc2)c1 [Example 60, (2R,3S)-5-fluoro-2-(4-(2-(3-(fluoromethyl)azetidin-1-yl)ethoxy)phenyl)-3-(3-hydroxyphenyl)-2,3-dihydrobenzo[b][1,4]oxathiin-6-ol]",15.8,−91.9
"COc1ccc(-c2sc3cc(O)ccc3c2Oc2ccc(OC[C@H](C)N3CC[C@@H](CF)C3)cc2)cc1 [Example 12, 3-(4-((S)-2-((R)-3-(Fluoromethyl)pyrrolidin-1-yl)propoxy)phenoxy)-2-(4-methoxyphenyl)benzo [6]thiophen-6-ol]",310,−50
CC/C(=C(\c1ccc(O)cc1)c1ccc(OCCN2CC(CF)C2)cc1)c1ccccc1 [Example 23],0.59,−95
"C[C@@H](COc1ccc([C@@H]2Oc3ccc(O)cc3S[C@@H]2c2ccc(O)cc2)cc1)N1CC[C@@H](CF)C1 (mixture of isomers) [Example 30, 2-(4-((S)-2-((R)-3-(Fluoromethyl)pyrrolidin-1-yl)propoxy)phenyl)-3-(4-hydroxyphenyl)-2,3-dihydrobenzo[b][1,4]oxathiin-6-ol]",1.1,−99
"Oc1ccc2c(c1)O[C@H](c1ccc(OCCN3CC(CF)C3)cc1)C1=C2CCOc2ccc(O)cc21 [Example 77, (R)-8-(4-(2-(3-(fluoromethyl)azetidin-1-yl)ethoxy)phenyl)-2,8-dihydro-1H-benzo[2,3]oxepino[4,5-c]chromene-6,11-diol]",9.59,−84.5
"CC/C(=C(\c1ccccc1)c1ccc(OC[C@H](C)N2CC[C@@H](CF)C2)cc1)c1ccccc1 [Example 20, (R)-1-((S)-1-(4-((Z)-1,2-Diphenylbut-1-en-1-yl)phenoxy)propan-2-yl)-3-(fluoromethyl)pyrrolidine]",24,−73
"CC/C(=C(/c1ccc(OCCN2CC(CF)C2)cc1)c1ccc2[nH]ncc2c1)c1ccccc1 [Example 25, (E)-5-(1-(4-(2-(3-(Fluoromethyl)azetidin-1-yl)ethoxy)phenyl)-2-phenylbut-1-en-1-yl)-1H-indazole]",1.5,−92
